Test results from US5585492A, “LTA4 Hydrolase inhibitors” (priority 1994, dated 1996).

Tests used:
[1] = molecular target: T1, recombinant human LTA4 hydrolase (Homo sapiens, UniProt P09960); assay: Recombinant Human LTA4 Hydrolase Assay for LTA4 Hydrolase Inhibitor Activity (LTB4 by enzyme-linked immunoassay); format: biochemical; details: for IC50: read-out: Recombinant Human LTA4 Hydrolase Assay IC50 LTA4H
T1 construct: made in house; host or cells: Spodoptera frugiperda Sf-9 cells, baculovirus (AcNPV) expression vector
T1 sequence (P09960 1-611): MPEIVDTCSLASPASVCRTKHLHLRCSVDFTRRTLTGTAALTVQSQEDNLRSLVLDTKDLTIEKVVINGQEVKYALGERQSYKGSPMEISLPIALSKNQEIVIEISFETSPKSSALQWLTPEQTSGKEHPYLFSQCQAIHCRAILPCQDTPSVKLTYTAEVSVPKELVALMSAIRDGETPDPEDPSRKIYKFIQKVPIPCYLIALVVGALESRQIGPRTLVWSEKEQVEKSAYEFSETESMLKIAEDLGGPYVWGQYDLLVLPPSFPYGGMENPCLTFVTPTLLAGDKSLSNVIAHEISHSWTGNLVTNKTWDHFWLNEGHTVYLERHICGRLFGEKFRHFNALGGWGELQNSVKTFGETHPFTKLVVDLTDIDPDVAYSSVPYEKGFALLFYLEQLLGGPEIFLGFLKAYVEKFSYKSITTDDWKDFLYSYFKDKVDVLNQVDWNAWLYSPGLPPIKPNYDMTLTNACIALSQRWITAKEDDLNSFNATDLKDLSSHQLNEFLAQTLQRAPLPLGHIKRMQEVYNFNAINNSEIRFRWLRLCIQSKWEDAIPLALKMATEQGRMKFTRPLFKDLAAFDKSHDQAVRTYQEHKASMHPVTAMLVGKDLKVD
Procedure: Compounds of the present invention were tested for LTA4 hydrolase inhibitor activity against recombinant human LTA4 hydrolase (rhLTA4 H). […] Briefly, LTA4 hydrolase encoding DNA was amplified by polymerase chain reaction using a pair of oligonucleotide primers based on the nucleotide sequence from the 5'-end, and the complement of the 3'-end, of the coding region of the LTA4 hydrolase gene, the nucleotide sequence of which gene is known. […] A λgtll human placental cDNA library (Clonetech, Palo Alto, Calif.) provided the nucleic acid template.
One or more predetermined amounts of a compound of the invention were incubated in assay buffer (0.1M potassium phosphate, 5 mg/ml fatty acid free BSA, 10% DMSO, pH 7.4) for 10 minutes at room temperature with 250 ng of recombinant hLT4 H to allow binding, if any, between the enzyme and inhibitor. The stock enzyme solution was 1 mg/ml LTA4 hydrolase, 50 mM Tris, pH 8.0, 150 mM NaCl, 2.5 mM beta-mercaptoethanol, 50% glycerol. […] LTA4 (i.e., substrate) was prepared from the methyl ester of LTA4 (Biomol, Inc., Plymouth Meeting, Pa.) by treating the methyl ester with 30 molar equivalents of LiOH at room temperature for 18 hours. The LTA4 substrate in its free acid form was kept frozen at -80° C. until needed. […] Each reaction was carried out at room temperature for 10 minutes. The reaction was stopped by diluting 25 μl of the reaction mixture with 500 μl of the assay buffer without DMSO. LTB4 was quantified in the diluted sample by a commercially available enzyme-linked immunoassay [Caymen Chemical Co., Ann Arbor, Mich.] using the method recommended in the manufacturer's instructions and compared to the amount of LTB4 produced in a negative control (i.e., essentially identical conditions except without addition of an inhibitor compound). The IC50 was routinely calculated from the data produced.

[2] = tested on: LTB4 production in human blood; assay: Inhibition of Calcium Ionophore-Induced LTB4 Production in Human Blood (HWB); format: cell-based; details: Homo sapiens, human whole blood, A23187 20 mcg/ml; read-out: Inhibition of Calcium Ionophore-Induced LTB4 Production in Human Blood IC50 HWB
Procedure: One or more concentrations of the leukotriene A4 hydrolass inhibitor compounds being tested were prepared (diluted in DMSO) and 2 μl added and gently mixed with the diluted whole blood. After incubating for 15 minutes at 37° C. in a humidified incubator, calcium ionophore A23187 (Sigma Chemical Co., St. Louis, Mo.) was added to a final concentration of 20 mcg/ml and the incubation continued under the same conditions for an additional 10 minutes to allow LTB4 formation. The reaction was terminated by centrifugation (833 g, 10 minutes at 4° C.) and supernatant were analyzed for LTB4 and thromboxane by commercially available enzyme-linked immunoassays (Caymen Chemical Co., Ann Arbor, Mich.) according to the manufacturer's instructions. The IC50 of each test compound was determined from the amount of inhibition of LTB4 production as compared to an essentially identical assay in which no inhibitor compound was present.

| SMILES | IC50 [1] [nM] | IC50 [2] [nM] | further results |
| --- | --- | --- | --- |
| NC(=O)C1CCCN(CCCOc2ccc(Oc3ccccc3)cc2)C1 (centres unmarked) [Example 250] | 4900 | 1770 |  |
| Clc1cc(Cc2ccccc2)ccc1OCCN1CCCC1 [Example 113] | 1230 | 2010 |  |
| NC(=O)C1CCN(CCOc2ccc(Cc3ccccc3)cc2)CC1 [Example 239] | 9000 |  |  |
| c1ccc(Cc2ccc(OCCN3CCCCC3)cc2)cc1 [Example 401] | 55 |  |  |
| CC(C)(C)OC(=O)CCNCCCOc1ccc(Cc2ccccc2)cc1 [Example 268] |  | 7980 | inhibition at 3 µM [1]: 53% |
| O=C(O)CCNCCCCOc1ccc(Cc2ccccc2)cc1 [Example 433] | 18 | 49 |  |
| CCOC(=O)CC(NCCOc1ccc(Cc2ccccc2)cc1)c1cccnc1 (centres unmarked) [Example 271] | 11000 | 7980 |  |
| CC(=O)NC1CCN(CCOc2ccc(Cc3ccccc3)cc2)CC1 [Example 238] | 50 | 180 |  |
| N#CC1CCN(CCOc2ccc(Cc3ccccc3)cc2)CC1 [Example 279] | 470 |  |  |
| CCOC(=O)C1CCN(CCOc2ccc(Cc3ccc(F)cc3)cc2)CC1 [Example 312] |  |  | inhibition at 100 µM [1]: 46% |
| C(=C\c1ccc(OCCN2CCCC2)cc1)/c1ccccc1 [Example 46] | 1350 | 1500 |  |
| NC1CCN(CCOc2ccc(Cc3ccccc3)cc2)C1 (centres unmarked) [Example 452] | 20 | 290 |  |
| c1cc(Cc2ccc(OCCN3CCCC3)cc2)ccn1 [Example 126] | 630 |  |  |
| c1ccc(Cc2ccc3c(c2)CC(Cn2nnc4cccnc42)O3)cc1 (centres unmarked) [Example 360A] |  |  | inhibition at 100 µM [1]: 36% |
| CC1(CN2CCCC2)Cc2cc(Cc3ccccc3)ccc2O1 (centres unmarked) [Example 285] | 130 | 1730 |  |
| Cc1nc(COc2ccc(OCCN3CCCC3)cc2)cs1 [Example 202] |  |  | inhibition at 3 µM [1]: 44% |
| c1ccc(Cc2ccc3c(c2)CC(Cn2nc4cccnc4n2)O3)cc1 (centres unmarked) [Example 360B] |  |  | inhibition at 100 µM [1]: 19% |
| Fc1cc(Cc2ccccc2)ccc1OCCN1CCCC1 [Example 115] | 60 | 190 |  |
| NC(=O)C1CCN(CCOc2ccc(Cc3ccccc3)cc2)C1 (centres unmarked) [Example 425] | 16 | 360 |  |
| CCOC(=O)CNCCCOc1ccc(Cc2ccccc2)cc1 [Example 264] | 3000 | 1100 |  |
| CC1(CN2CCC(C(N)=O)CC2)Cc2cc(Cc3ccccc3)ccc2O1 (centres unmarked) [Example 286] |  |  | inhibition at 100 µM [1]: 41% |
| c1ccc(Cc2ccc(SCCN3CCCC3)cc2)cc1 [Example 68] | 480 |  |  |

| SMILES | IC50 [1] [nM] | IC50 [2] [nM] | further results |
| --- | --- | --- | --- |
| CC(C)(C)OC(=O)C1CCCN1CCCOc1ccc(Cc2ccccc2)cc1 (centres unmarked) [Example 260] |  |  | inhibition at 3 µM [1]: 14% |
| O=C(O)CCNCCCOc1ccc(Cc2ccccc2)cc1 [Example 431] | 140 | 280 |  |
| CC(=O)NC1CCN(CCOc2ccc(Cc3ccccc3)cc2)C1 (centres unmarked) [Example 227] | 210 | 420 |  |
| Clc1cccc(Cl)c1COc1ccc(OCCN2CCCC2)cc1 [Example 204] |  |  | inhibition at 25 µM [1]: 49% |
| Nc1ccc2ncn(CCOc3ccc(Cc4ccccc4)cc3)c2c1 [Example 362B] | 1320 | 4580 |  |
| NC(=O)C1CCCN(CCCOc2ccc(Cc3ccccc3)cc2)C1 (centres unmarked) [Example 244] |  |  | inhibition at 100 µM [1]: 15% |
| O=C(COc1ccc(Cc2ccccc2)cc1)N1CCCCC1 [Example 387, 1-(1-piperidinyl)-2-[4-(phenylmethyl)phenoxy]ethanone] | 37 | 120 |  |
| c1ccc(Oc2ccc(OCCCn3cnc4ccccc43)cc2)cc1 [Example 343] |  |  | inhibition at 3 µM [1]: 40% |
| c1cc(Cc2ccc(OCCN3CCCC3)cc2)co1 [Example 136] | 77 |  |  |
| c1coc(Cc2ccc(OCCN3CCCC3)cc2)c1 [Example 135] | 47 |  |  |
| C#CC(CC(=O)OCC)NCCOc1ccc(Cc2ccccc2)cc1 (centres unmarked) [Example 408] |  |  | inhibition at 100 µM [1]: 76% |
| O=C(O)c1ccc(Oc2ccc(OCCN3CCCC3)cc2)cc1 [Example 64] |  |  | inhibition at 25 µM [1]: 52% |
| O=C(O)c1ccc(-c2ccc(OCCN3CCCC3)cc2)cc1 [Example 63] |  |  | inhibition at 25 µM [1]: 40% |
| c1ccc(COc2ccc(OCCn3cnc4cccnc43)cc2)cc1 [Example 346A] |  |  | inhibition at 3 µM [1]: 31% |
| NC(=O)C1CCN(CCCOc2ccc(Cc3ccccc3)cc2)CC1 [Example 226, 1-[3-[4-(phenylmethyl)phenoxy]propyl]-4-piperidinecarboxamide] |  |  | inhibition at 100 µM [1]: 4% |
| O=C(OCc1ccccc1)[C@@H]1CCCN1CCCOc1ccc(Cc2ccccc2)cc1 [Example 228, Phenylmethyl 1-[3-[4-(phenylmethyl)phenoxy]propyl]-L-prolinate] |  |  | inhibition at 3 µM [1]: 28% |
| O=C(CNCCOc1ccc(Cc2ccccc2)cc1)OCc1ccccc1 [Example 319] |  |  | inhibition at 100 µM [1]: 47% |
| Cc1ccccc1COc1ccc(OCCN2CCCC2)cc1 [Example 210] |  |  | inhibition at 25 µM [1]: 4% |
| Fc1ccc(Oc2ccc(OCCn3cnc4cccnc43)cc2)cc1 [Example 354A] |  |  | inhibition at 3 µM [1]: 51% |
| c1ccc(Cc2ccc(OCCN3CCCC3)cc2)nc1 [Example 138] |  | 520 |  |
| c1ccc(Cc2ccc(OCCCn3cnc4ccncc43)cc2)cc1 [Example 356A] |  | 1280 |  |
| c1ccc(Cc2ccc(OCCn3ccc4ncccc43)cc2)cc1 [Example 342] |  | 2120 |  |

| SMILES | IC50 [1] [nM] | IC50 [2] [nM] | further results |
| --- | --- | --- | --- |
| CCOC(=O)C1CCN(CCOc2ccc(Cc3cccnc3)cc2)CC1 [Example 311] |  |  | inhibition at 100 µM [1]: 44% |
| c1ccc(COc2ccc(OCCn3cnc4ncccc43)cc2)cc1 [Example 346B] |  | 3570 |  |
| COC(=O)CCNCCCOc1ccc(Cc2ccccc2)cc1 [Example 267] |  | 580 |  |
| COC(=O)CCN(C)CCCOc1ccc(Cc2ccccc2)cc1 [Example 413] |  | 42 |  |
| NC(=NO)C1CCN(CC2Cc3cc(Cc4ccccc4)ccc3O2)CC1 (centres unmarked) [Example 446] |  | 160 |  |
| c1csc(COc2ccc(OCCN3CCCC3)cc2)c1 [Example 215] |  | 190 |  |
| c1ccc(COc2ccc(OCCn3cnc4ccccc43)cc2)cc1 [Example 345] |  |  | inhibition at 3 µM [1]: 35% |
| c1ccc(Cc2ccc3c(c2)CCC(CN2CCCC2)O3)cc1 (centres unmarked) [Example 292] |  | 52 |  |
| NC(=O)C1CCN(CC2Cc3cc(Oc4ccccc4)ccc3O2)CC1 (centres unmarked) [Example 290] |  | 528 |  |
| C[C@@H]1C[C@H](C(N)=O)CCN1CCOc1ccc(Cc2ccccc2)cc1 (relative stereo) [Example 297] |  | 359 |  |
| NCCOc1ccc(Cc2ccccc2)cc1 [Example 496] |  | 280 |  |
| Clc1cc(OCCN2CCCC2)ccc1Cc1ccccc1 [Example 114] |  | 16000 |  |
| CCOC(=O)C1CCN(CCOc2ccc(Oc3ccccc3)cc2)CC1 [Example 254] |  | 1260 |  |
| c1ccc(Cc2ccc3c(c2)CC(Cn2nc4ccncc4n2)O3)cc1 (centres unmarked) [Example 361A] |  |  | inhibition at 100 µM [1]: 24% |
| c1ccc(Cc2ccc(OCCNC3CCCCC3)cc2)cc1 [Example 240] |  | 2450 |  |
| c1ccc(Cc2ccc(OCCN3CC4CCC3CC4)cc2)cc1 [Example 500] |  | 142 |  |
| c1ccc(Cc2ccc3c(c2)CC(CN2CCCC2)O3)cc1 (centres unmarked) [Example 280] |  | 21 |  |
| CCC(CN1CCCC1)Oc1ccc(Cc2ccccc2)cc1 (centres unmarked) [Example 405] |  | 2010 |  |
| c1cc(OCCN2CCCC2)ccc1Cc1ccc2c(c1)OCO2 [Example 130] |  | 1010 |  |
| c1ccc(COc2ccc(OCCn3cnc4cnccc43)cc2)cc1 [Example 347B] |  | 5700 |  |
